Data on 15 molecules can be found in paper PMC8998803, “Fragment-Based Discovery of AF9 YEATS Domain Inhibitors” (International Journal of Molecular Sciences, 2022).

Assay [1] has as its target T1, AF9 YEATS domain (Homo sapiens, UniProt P42568).
T1 construct: DNA fragment encoding AF9 YEATS domain (residues 1–138) was amplified and cloned into the pET28a vector; made in house; host or cells: Escherichia coli BL21 (DE3)
T1 sequence (P42568 1-138): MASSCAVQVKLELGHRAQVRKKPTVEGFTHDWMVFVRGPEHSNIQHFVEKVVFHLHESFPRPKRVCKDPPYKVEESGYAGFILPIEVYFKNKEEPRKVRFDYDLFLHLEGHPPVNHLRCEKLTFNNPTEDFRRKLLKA
Kind of assay: NMR chemical shift perturbation titration of 15N-labeled AF9 YEATS domain. The format is binding. Particulars: for Kd: from dose-dependent chemical shift perturbations, ± fitting error; for LE: ligand efficiency, Table 1. The source says: (§1) To further validate the results of ligand-observed fragment-based screening, we titrated these hits with the ^15N-labeled AF9 YEATS domain (Figure 1B). The backbone chemical shift assignment was retrieved from the literature. […] These residues were then mapped to the surface of the crystal structure of the AF9 YEATS domain in complex with H3K9ac (PDB code: 4TMP), which indicated the binding of these hits to the same pocket for acyl-lysine recognition (Figure 1D). The binding affinity of hit 2 was then determined by best fitting the dose-dependent CSPs of these residues (Figure 1E) at 0.07 ± 0.01 mM (fitting error was used henceforth unless specifically annotated). The affinity of hit 2 was further validated using isothermal titration calorimetry (ITC) (Figure 1F). The binding affinity of the other hits was determined using the same approach (Table 1). These four hits probably bound to the same pocket since they shared the same pharmacophore.
The ^15N-labeled AF9 YEATS domain was concentrated to 0.1 mM in phosphate buffered saline at pH 6.8. The HSQC spectra were acquired on the Agilent 500 MHz spectrometer at a ligand/protein molar ratio varying from 0 to 8.0. The dissociation constant Kd was best-fitted using the following equation assuming a 1:1 binding mode, Δδobs=ΔδmaxPt+Lt+Kd−Pt+Lt+Kd^2−4PtLt/2Pt where Pt and Lt represented the total concentrations of the protein and the ligand, respectively, and the Δδobs denoted the observed chemical shift changes relative to the free-form protein. Δδobs was defined as 1/2δH2+0.04δN2 , where δH and δN were the chemical shift changes in the ^1H and ^15N dimension, respectively. The maximum of the chemical shift perturbations Δδmax and the dissociation constant Kd were best-fitted from the dose-dependent chemical shift changes

In assay [2] the target is T1, AF9 YEATS domain. The assay can be described thus: Isothermal titration calorimetry with AF9 YEATS domain. The format is binding.
From the text: as §1
All ITC titrations were carried out on a MicroCal ITC200 calorimeter (Malvern Instruments Ltd., Malvern, UK) at 298K. The AF9 YEATS domain protein was dialyzed to 20 mM Tris buffer containing 150 mM NaCl at pH 7.4. The concentration of the protein was determined by UV-Vis spectroscopy. The compounds were dried and dissolved in the same buffer. The concentrations of compounds were determined using quantitative NMR30. The ITC data were analyzed using Origin 2019 and best-fitted to the one-site binding model to determine the enthalpies and affinity constants. The binding entropies were calculated using the Gibbs free energy equation.
Background: ITC needs no label: the signal is the heat of the interaction.

The next assay addresses T2, ENL YEATS domain (Homo sapiens, UniProt Q03111).
T2 construct: determined from the dose-dependent chemical shift perturbations of ENL YEATS
T2 sequence (Q03111 1-138 limits assumed): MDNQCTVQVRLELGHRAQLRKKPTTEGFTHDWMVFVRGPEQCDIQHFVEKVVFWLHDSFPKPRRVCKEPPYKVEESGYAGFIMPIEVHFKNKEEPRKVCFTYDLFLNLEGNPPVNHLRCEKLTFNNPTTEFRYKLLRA
Kind of assay: NMR chemical shift perturbation titration of ENL YEATS. The format is binding. The note with it: determined by CSPs, read-out: affinity. The procedure: (§2) It is, therefore, difficult to achieve a high selectivity between AF9 and ENL YEATS domains, as underscored by the similar affinity of compound 10 to both AF9 and ENL (38 ± 6 μM) determined by CSPs (Figure 4C), even though compound 10 represented a new chemotype with a binding mode distinct from that of SGC-iMLLT (Figure 4B). […] Therefore, compound 10 was a dual inhibitor of AF9/ENL YEATS domains.
(§3) Figure 4 Selectivity analysis of AF9 inhibitors among human YEATS domains and antiproliferation activities. (A) Sequence alignment of human YEATS domains. Conserved residues are highlighted, with residues interacting with H3K9ac annotated. (B) Superimposition of AF9 and ENL YEATS domain structures in complex with 10 (carbon atom in magenta) and SGC-iMLLT (PDB code: 6HT1), respectively. The hydrogen bonds are delineated by dashed lines. (C) The binding affinity of 10 determined from the dose-dependent chemical shift perturbations of ENL YEATS. The Kd value with the fitting error is annotated. (D) Chemical shift perturbations of the ^15N-labeled YEATS2 YEATS domain induced by 10. (E) The binding affinity of 10 estimated from best fitting of the dose-dependent chemical shift perturbations of the YEATS2 YEATS domain. (F) Viability of MCF7 and AF9-sensitive HGC-27 cells upon treatment with inhibitors at a single dose of 100 μM. […]

The next assay deals with T3, YEATS2 YEATS domain (Homo sapiens, UniProt Q9ULM3).
T3 construct: Chemical shift perturbations of the ^15N-labeled YEATS2 YEATS domain induced by 10
T3 sequence (Q9ULM3 200-345 limits assumed): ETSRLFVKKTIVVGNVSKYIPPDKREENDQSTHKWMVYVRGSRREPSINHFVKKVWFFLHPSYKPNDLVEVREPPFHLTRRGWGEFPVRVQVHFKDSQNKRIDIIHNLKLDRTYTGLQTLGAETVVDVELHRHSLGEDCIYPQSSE
Kind of assay: NMR chemical shift perturbation titration of 15N-labeled YEATS2 YEATS domain. The format is binding. The procedure: as §2, §3

The next assay relates to NCL-H1975 cells. The assay can be described thus: Cell viability, NCL-H1975. Particulars: single dose of 100 μM; AF9-sensitive cell line. The format is cell-based.
The test system of a further assay is MCF7 cells. Kind of assay: Cell Counting Kit-8 (CCK-8) cell viability assay, MCF7. The note with it: single dose of 100 μM.
A further assay concerns HGC-27 cells. The assay can be described thus: Cell Counting Kit-8 (CCK-8) cell viability assay, HGC-27. Particulars: AF9-sensitive HGC-27 cells.
For a further assay, the system named is MCF7. The arrangement: method as in PMID 30288907. The note with it: cited from earlier work.
For assay [3], the system named is the rest of the 59 cell lines. The arrangement: method as in PMID 30288907. The note with it: cited from earlier work.

Experimental for HGC-27 cells: (§4) We further assessed the cellular activity of these inhibitors in cancer cells.
(§5) Human MCF7 and HGC-27 cell lines were cultured at 37 °C in a humidified 5% CO2 atmosphere in DMEM (Gibco, Stony Plain, AB, Canada) medium supplemented with 10% fetal bovine serum (FBS) (Gibco) and 1 × penicillin/streptomycin (Gibco). MCF7 and HGC-27 cells were seeded in 96-well plates with approximately 10^4 cells in 100 μL of the medium and treated with the following conditions: fresh culture medium with DMSO (control) or fresh culture medium with inhibitors at a concentration of 100 μM. Cell viability was measured using a Cell Counting Kit-8 (Purchased from TargetMol, Boston, MA, USA) according to manufacturer’s instructions [45]. The absorbance was read at 450 nm with a microplate reader (CLARIOstar, BMG LABTECH, Ortenberg, Germany). Cell viability was calculated as the ratio of experimental group absorbance vs. control group absorbance.
Experimental for MCF7 cells: as §4, §5

Turning to `COCC(=O)Nc1ccc(C)c(N)c1` [Compound 1], on AF9 YEATS domain [1], the Kd is 137 ± 24 µM and the LE is recorded as 0.38.

For `COCC(=O)Nc1ccc(Cl)c(N)c1` [Compound 2], the Kd amounted to 70 ± 10 µM on AF9 YEATS domain [1] and 76 ± 10 µM at AF9 YEATS domain [2] (ITC, 1:1 binding mode, 298K). The LE on AF9 YEATS domain [1] was 0.41. On AF9 YEATS domain [2] (ITC binding enthalpy), this molecule came in with a ΔH of -10 ± 2 kcal/mol. For the same molecule, at AF9 YEATS domain [2] (ITC, entropy calculated using the Gibbs free energy equation), the “-TΔS” value was 4 kcal/mol.

Consider `COCC(=O)Nc1ccc(N)cc1Cl` [Compound 3], for which, at AF9 YEATS domain [1], the Kd was determined as 100 ± 10 µM and the LE was determined as 0.39.

As to `COCC(=O)Nc1ccc(N)cc1C` [Compound 4], at AF9 YEATS domain [1], the Kd came to 440 ± 100 µM and the LE was 0.33.

For `COCC(=O)Nc1ccc(Cl)cc1` [Compound 5], on AF9 YEATS domain [1], the Kd is 80 ± 60 µM and the LE is on record as 0.43. Besides, on AF9 YEATS domain [1] (relative to hit 2), the “change of affinity (in words)” value is “did not significantly alter the affinity”.

Consider `COCC(=O)Nc1ccc(Cl)c(O)c1` [Compound 6], for which, at AF9 YEATS domain [1], the Kd came to 61 ± 4 µM and the LE stood at 0.41. Further, the “change of affinity (in words)” value at AF9 YEATS domain [1] (relative to hit 2) was “did not significantly alter the affinity”.

In the case of `CNC(=O)Cc1ccc(NC(=O)COC)cc1` [Compound 7], on AF9 YEATS domain [1], the Kd turned out to be 270 ± 20 µM and the LE came to 0.29.

In the case of `COCC(=O)Nc1ccc(CNC(C)=O)cc1` [Compound 8], the Kd at AF9 YEATS domain [1] came out at 310 ± 4 µM.

In the case of `CNCC(=O)Nc1ccc(CNC(C)=O)cc1` [Compound 9], on AF9 YEATS domain [1], the Kd stood at 660 ± 70 µM and the LE amounted to 0.26.

In the case of `O=C(COCc1ccccc1)Nc1ccc(Cl)cc1` [Compound 10], the Kd at AF9 YEATS domain [1] is 38 ± 6 µM; on ENL YEATS domain, 38 ± 6 µM; at YEATS2 YEATS domain (estimated from best fitting of dose-dependent chemical shift perturbations) it was above 200 µM. Further, the “enhancement of the affinity for the AF9 YEATS domain” value on AF9 YEATS domain [1] (relative to hit 2) was “approximately two-fold enhancement”. On YEATS2 YEATS domain (chemical shift of YEATS2 only slightly disturbed), the “binding affinity (in words)” value is recorded as “very weak binding affinity”. In addition, the “effect on NCL-H1975 cells (in words)” value in the assay on NCL-H1975 cells is on record as “demonstrated inhibitory effects”. For the same molecule, the “potency in MCF7 cells (in words)” value in the assay with MCF7 cells is listed as “weak potency”. In the assay with HGC-27 cells, the “proliferation of HGC-27 cells (in words)” value is listed as “suppressed the proliferation of AF9-sensitive HGC-27 cells more effectively in a dose-dependent manner”.

As to `O=C(COc1ccccc1)Nc1ccc(Cl)cc1` [Compound 11], at AF9 YEATS domain [1], the Kd is 88 ± 30 µM and the LE is 0.31.

Take `O=C(COCc1ccc(F)cc1)Nc1ccc(Cl)cc1` [Compound 12]: on AF9 YEATS domain [1], the Kd was determined as 87 ± 11 µM and the LE came to 0.28.

On to `O=C(COCc1ccccc1O)Nc1ccc(Cl)cc1` [Compound 13], for which, on AF9 YEATS domain [1], the Kd stood at 70 ± 9 µM and the LE was found to be 0.28.

Consider `O=C(COCc1ccccc1)Nc1c(F)cc(Cl)cc1F` [Compound 14], for which the “affinity enhancement relative to that of 10” value on AF9 YEATS domain [1] (AF9 YEATS) is reported as “approximately 30%”. In addition, on AF9 YEATS domain [1], the Kd came out at 26 ± 4 µM and the LE is 0.30.

For the molecule `C[C@H]1CCCN1Cc1nc2cc(NC(=O)c3ccc4c(cnn4C)c3)ccc2[nH]1` [SGC-iMLLT], the “potency in MCF7 (in words)” value with MCF7 is reported as “weak potency”. Besides, the “activities over the rest of the 59 cell lines (in words)” value in assay [3] was “almost no detectable activities”.
